System: SR-GVHD model induced by allogeneic transplantation
Experiment: SR-GVHD mouse allogeneic transplantation model, switching from steroid to conjugate (Example 4)
Format: in vivo, BALB/C mice (recipients)
Settings: Group 2: Apraglutide 469 µg/kg once every other day, subcutaneously, from 3 days after splenocyte injection; excipient group 21.4%; FIG. 4
Protocol: In order to construct a mouse allogeneic transplantation model as a graft-versus-host disease (GVHD) model, female donor mice C57BL/6j were purchased from OrientBio (Korea), and female recipient mice BALB/C were purchased from DBL (Korea). The mice were raised in a sterile environment with a 12-h light/dark cycle. Food and water were provided ad libitum, and all procedures were performed under the approval of the Animal Experimentation Committee.
In order to mobilize hematopoietic stem cells (HSCs) into peripheral blood from 13-week-old C57BL/6j mice (donors), 10 µg of G-CSF (granulocyte-colony stimulating factor) (PeproTech, USA) was injected subcutaneously for 5 days, and then 1.5 × 10^7 splenocytes were collected. The 1.5 × 10^7 splenocytes (200 µL volume) were injected into BALB/C mice (recipients) through the tail vein. […]
The numerical value expressed as the dose of the GLP-2 derivative long-acting conjugate herein is based on the value acquired by excluding the mass of the polyethylene glycol linker moiety from the total mass of the GLP-2 derivative long-acting conjugate used, that is, the sum of the masses of only the polypeptide moieties.
The onset signs were evaluated using the same criteria as in Table 3, the survival rate was determined, and the small intestine and colon tissues were harvested and pathological changes were observed.

## Apraglutide
  survival rate on day 25: 35.7%

Source: patent EP4640234A1, “PHARMACEUTICAL COMPOSITION FOR PREVENTING OR TREATING GRAFT-VERSUS-HOST DISEASE CONTAINING GLP-2 DERIVATIVE OR LONG-ACTING CONJUGATE THEREOF” (Hanmi Pharm. Co., Ltd., priority 2022, dated 2024)
